Data set [1] is described as follows: Solubility study (HPLC-UV, phosphate buffers). The format is physicochemical. Particulars: 25 °C, aqueous buffer, kinetic from dmso stock, 25±2° C., 2% DMSO, theoretical maximum 200 μM. The procedure: The solubility of the compound was determined to evaluate the solubility property of the compound.
• 1) Buffer A (pH 2.0): 50 mM phosphate buffer, pH 2.0; Buffer B (pH 6.5): 50 mM phosphate buffer, pH 6.5: Buffer C (pH 7.4): 50 mM phosphate buffer, pH 7.4; • 2) Preparation of standard solution: • a) 50% acetonitrile solution and 50% buffer solution were mixed to obtain a diluent; • b) 10 mM (10 μL/compound) compound stock solution was added to the diluent (490 μL/compound) to obtain 200 μM detection standard solution; • c) The 200 μM UV detection standard solution was diluted with 10-fold and 200-fold volume of diluents to obtain 20 μM and 1 μM UV standard solutions, respectively; • d) UV standard solutions of 1 μM, 20 µM, and 200 μM were used as standard solutions for solubility assays.
• 1) The compound was dissolved in DMSO to prepare a 10 mM stock solution. […] The pH of the corresponding solubility solutions was 2.0, 6.5 and 7.4, respectively. The theoretical maximum concentration of the assay compound is 200 μM with 2% DMSO; • 3) The plate was shaken in a shaker at room temperature (25±2° C.) at 600 rpm for 24 hours; • 4) 200 μL of the solution was pipetted from the 96-well plate, filtered with suction by a vacuum suction filtration device, and transferred into a new 96-well plate as an assay sample; • 5) The compound concentration was determined using HPLC-UV.
• 6) Three UV standard solutions from low concentration to high concentration (1 μM, 20 μM, 200 μM) were injected into HPLC, and then the assay sample of the compound to be assayed was injected; • 7) The UV chromatographic peaks were integrated, and the solubility of the sample was calculated.

Data set [2] in a line: In vivo PK study in beagle dogs. The note with it: male beagle dogs. Set-up: species or system beagle dog. The procedure:
Male beagle dogs were used as assay animals. After a single administration, the plasma concentration of the compound was measured and the pharmacokinetic behavior was evaluated.
Five healthy adult male beagle dogs were selected, wherein 2 were in an intravenous injection group, and 3 were in an oral group. The vehicle in the intravenous injection group was 5% DMSO+95% (20% HP-β-CD). The compound to be assayed was mixed with an appropriate amount of vehicle for intravenous injection, and dissolved with stirring to prepare a clear solution of 0.4 mg/mL. The clear solution was filtered by a microporous membrane, and then ready for use. The vehicle in the oral group was 5% DMSO+95% (20% HP-β-CD). The compound to be assayed was mixed with the vehicle, and dissolved with stirring to prepare a solution of 0.3 mg/mL. […] were administered 1 mg/kg intravenously or 3 mg/kg orally, and then whole blood was collected for a certain period. Plasma was prepared. The drug concentration was analyzed by LC-MS/MS method, and the pharmacokinetic parameters were calculated by Phoenix WinNonlin software (Pharsight, USA).

The subject of another data set is monkey plasma albumin. Put plainly: Plasma protein binding (ultracentrifugation), monkey. Further: tested at 0.2 µM. The format is in vitro ADME. The procedure: The binding degree of the assay compound to human/mouse/rat/canine/monkey plasma albumin was studied.
• 1) Matrix preparation: on the day of the assay, plasma was thawed in cold water and centrifuged at 3220 rpm for 5 min to remove all clots. The pH of the resulting plasma was measured and adjusted to 7.4±0.1 using 1% phosphoric acid or IN sodium hydroxide as needed. • 2) Dilution procedure for the assay compound: the assay compound was dissolved in dimethyl sulfoxide (DMSO) to prepare stock solutions with concentrations of 10 mM and 2 mM, respectively. A 40 μM working solution was prepared by diluting 2 μL of stock solution (2 mM) with 98 μL of DMSO. A 400 μM working solution of the control compound was prepared by diluting 10 μL of stock solution with 240 μL of DMSO. The working solution of the compound (5 μL) was mixed well with a blank matrix (995 μL) at a ratio of 1:200 to prepare a loading matrix.
• a) An equal volume of 30 μL of loading matrix (n=2) was transferred to a sample collection plate to prepare a time 0 (TO) sample for residue determination. The sample was immediately matched with the corresponding blank buffer to a final volume of 60 μL, and the volume ratio of plasma to buffer in each well was 1:1. […] The mixture was centrifuged at 4000 rpm for 20 min and 100 μL of supernatant from each sample was analyzed by LC-MS/MS.

Values after ≈ are worked out from the molar mass of the structure shown. Like-named read-outs stand apart in the source and are kept apart here.

`Cc1cccc(CN2C(=O)c3nc(-c4nc(Nc5ccnn5C)ncc4C)sc3C23COC3)n1` [WX001]: the solubility at 24 h in data set [1] (50 mM phosphate buffer pH 2.0, 24 hours, read-out: Solubility at pH = 2.0) turned out to be 200 µM (≈ 94.7 µg/mL); in data set [1] (50 mM phosphate buffer pH 6.5, 24 hours, read-out: Solubility at pH = 6.5) it was 2.94 µM (≈ 1.4 µg/mL); in data set [1] (50 mM phosphate buffer pH 7.4, 24 hours, read-out: Solubility at pH = 7.4), 2.64 µM (≈ 1.25 µg/mL). The same compound gave a clearance in data set [2] (dog, plasma, intravenous, 1 mg/kg intravenously or 3 mg/kg orally) of 10.1 mL/min/kg. For the same compound, the Vd in data set [2] (dog, plasma, intravenous, 1 mg/kg intravenously or 3 mg/kg orally, read-out: Vdss) amounted to 1.29 L/kg. Also, the half-life in data set [2] (dog, plasma, 1 mg/kg intravenously or 3 mg/kg orally) is 209 min. Also, the bioavailability in data set [2] (dog, plasma, 1 mg/kg intravenously, 3 mg/kg orally, oral bioavailability) came to 60%. Moreover, in data set [2] (dog, single dose, 1 mg/kg intravenously or 3 mg/kg orally, plasma), the peak level (Cmax) was 1770 nM. For the same compound, the “Oral DNAUC” value in data set [2] (3 mg/kg orally, AUCPO/Dose) is 2307.32 nM · h/mpk. The “Plasma protein binding rate (unbound %)” value in the data set on monkey plasma albumin amounted to 14.2%.

The term solubility denotes the concentration that dissolves in the medium under given conditions. Broadly, the half-life is the time needed for the level to fall by half in the phase considered. One may read the bioavailability as the share of a dose that reaches the circulation, judged against a reference dose that is usually intravenous. For orientation: Cmax means the maximum level reached in the sampled fluid or tissue.

The values above are taken from patent US20240309018A1, “THIAZOLE-LACTAM-SPIROHETEROCYCLIC COMPOUNDS AND APPLICATIONS THEREOF” (D3 BIO (WUXI) CO., LTD, priority 2021, published 2024).
